Source: US20090227559A1, “SNPS IN THE APOB GENE AND SUSCEPTIBILITY TO INCREASED LEVELS OF ALAT FOLLOWING XIMELAGATRAN ADMINISTRATION” (AstraZeneca AB, priority 2005, published 2009)

Test: Clinical trials, longer-term ximelagatran treatment: ALAT elevation in patients
Assay type: in vivo, human
Text: Alanine aminotransferase (ALAT) is an enzyme mostly expressed in the liver (EC 2.6.1.2). It is also called serum glutamate pyruvate transaminase (SGPT) or alanine transaminase (ALT). This enzyme is release into the plasma by liver cell death, which is a normal event. However, when liver cell death increases, ALAT levels rise above the normal range. The spillover of this enzyme into blood is routinely measured as a marker of abnormal liver-cell damage. For example, alcoholic or viral hepatitis will increase ALAT levels, as will severe congestive heart failure. ALAT is also markedly raised in hepatitis and other acute liver damage. An elevated ALAT in the presence of normal levels of plasma alkaline phosphatase helps distinguish liver disease caused by liver-cell damage from diseases caused by problems in biliary ducts. Elevations of ALAT are normally measured in multiples of the upper limit of normal (ULN), with a reference range of 15-45 U/L in most laboratories. In 1987, in a study of 19,877 healthy Air Force recruits, only 99 (0.5%) had confirmed ALAT elevations (as reviewed in Green & Flamm (2002) Gastroenterology 123:1367-1384).
Subject to the future regulatory approval of ximelagatran, regular liver function testing (LFT) using an appropriate algorithm may be required if ximelagatran is used for treatment periods exceeding a month. Studies are currently ongoing to try and establish the mechanism of the ALAT elevations, and their hepatic and overall clinical significance.

CCOC(=O)CN[C@@H](C(=O)N1CC[C@H]1C(=O)NCc1ccc(/C(N)=N\O)cc1)C1CCCCC1 [ximelagatran, EtOOC—CH2—(R)Cgl-Aze-Pab-OH]
symptoms accompanying ALAT increases (longer-term treatment): mainly asymptomatic
patients exhibiting levels of alanine aminotransferase (ALAT) 3-fold or more above the upper limit of normal (≧3×ULN) (longer-term treatment (>35 days), 1.2% in the comparator groups): 7.9%
reversibility of ALAT increases (regardless of whether treatment was continued or discontinued): reversible in most patients
time of occurrence of the increase in ALAT values (usually, from start of treatment): ≤ 6 months
